Residues, ends and D or L forms follow the SMILES beside them. *: point of attachment. Cbz = O=C(OCc1ccccc1)*
Columns and labels:
[1] = test system: free α-globin in β-thalassemic erythroblasts; assay: Free α-globin by HPLC in erythroblasts derived from β-thalassemia patient CD34+ cells; format: cell-based, human; conditions: for reduction of free α-globin: rapamycin 10 μM or 20 μM added day 13, HPLC two days later
Description: Cells were lysed in Hemolysate reagent (Helena Laboratories, Beaumont, Tex.) and centrifuged. Analysis of globin chains in the supernatant was performed by ion exchange (IE) and reverse phase (RP)-HPLC (Prominence UFLC, Shimadzu). Proteins eluting from the column were quantified by light absorbance at 220, 280, and 415 nm with a diode array detector. The relative amount of free α-globin was calculated from the area of the peak for each condition at 415 nm and normalized based on the DMSO control. The percentage was calculated as follows: % α-globin=[α-chain/ρ-chain (β+γ+δ)×100].

Hbb^Th3/+ reticulocytes = assay: Reticulocyte pulse-chase analysis of insoluble α-globin turnover with inhibitors; format: cell-based, mice; conditions: 6 hours chase, 10 μM MG132, 100 μM chloroquine or 0.2 μM bafilomycin A1
Description: Briefly, reticulocytes were pulse-labeled with ^35S-cysteine and ^35S-methionine for 30 minutes then chased with unlabeled amino acids±proteasome inhibitor (10 μM MG132) and/or lysosome inhibitor (100 μM chloroquine or 0.2 μM bafilomycin A1). Insoluble α-globin was isolated by TAU gel electrophoresis, analyzed by autoradiography, and quantified using AlphaView SA 3.4.0 (ProteinSimple).
To investigate how the depletion of ULK1 or ATG5 affects the turnover of insoluble α-globin in β-thalassemia, mutant reticulocytes were pulse-labeled with ^35S-labeled amino acids, chased for various times with unlabeled amino acids with or without various inhibitors, and the soluble and insoluble nascent radiolabeled α-globin in cell lysates was quantified.

[2] = test system: β-thalassemic erythroblasts; assay: Cell survival of treated erythroblasts derived from β-thalassemia patient CD34+ cells; conditions: added day 13, 48 hours
Description: Erythroid differentiation and maturation were monitored by flow cytometry with an LSR/Fortessa cell analyzer (BD Biosciences), using the following antibodies: anti-CD235a (BD Biosciences), anti-Band3, and anti-α4-integrin (Miltenyi).

Hbb^Th3/+ mice = conditions: systemic administration (Khandros 2012); cited from earlier work
[3] = test system: β-thalassemic and control mice; assay: Hematologic analysis of mice treated with rapamycin for 30 days; format: in vivo
Description: Mice were analyzed at 1-6 months of age. Blood was collected by submandibular bleeding, anticoagulated with EDTA, and analyzed on a FORCYTE Veterinary Hematology Analyzer.
(§1) Tissue samples were submitted for pathology analysis.

[4] = test system: β-thalassemic and control mice; assay: Pathology grading of erythropoiesis (bone marrow, spleen, liver) in rapamycin-treated mice; format: in vivo; conditions: rapamycin 30 days; for Bone marrow erythropoiesis grade / Liver erythropoiesis grade / Spleen erythropoiesis grade: grade scale 0-5; for Final grade (sum of the grades of the three tissues): scale 0-15
Description: Bright-field images of hematoxylin and eosin-stained tissues were acquired with a Nikon Eclipse Ni microscope. Morphologic phenotyping of all cohorts was carried out in a blinded manner by a board-certified veterinary pathologist. A semi-quantitative grading method was used to highlight visual differences in the erythropoiesis in each cohort. The bone marrow, spleen, and liver were first analyzed separately using the following grading scale: grade 0: within normal limits; grade 1: minimal; grade 2: mild; grade 3: moderate; grade 4: marked; grade 5: severe. A total grade for erythropoiesis (final grade) was calculated based on the sum of the grades for each of the three tissues. […] No mouse received a grade consistent with a severe increase in erythropoiesis.
as §1

insoluble α-globin = assay: Detection of insoluble α-globin precipitates (TAU gel) in erythroid cells of treated mice; format: in vivo; conditions: FIG. 2
Description: Briefly, 20 μL of washed RBCs (normalized based on the hematocrit percentage) were lysed and centrifuged at 16,000×g at 4° C. for 30 minutes. The pellets were washed extensively in ice-cold 0.05×PBS. Membrane lipids were extracted with 56 mM sodium borate, pH 8.0, containing 0.1% TWEEN-20, at 4° C. Precipitated globins were dissolved in 8M urea, 10% acetic acid, 10% β-mercaptoethanol, and 0.04% pyronin, fractionated by TRITON-acetic acid-urea (TAU) gel electrophoresis, and stained with COOMASSIE brilliant blue. Soluble hemoglobin fractions were analyzed and quantified as loading controls by using AlphaView SA 3.4.0 (ProteinSimple).
as §1
(§2) Insoluble α-globin in reticulocytes from rapamycin-treated Hbb^Th3/+ mice was decreased by approximately 50% (FIG. 2).

[5] = test system: electron-dense α-globin inclusions in reticulocytes; assay: Transmission electron microscopy of electron-dense aggregates in reticulocytes of treated mice; format: in vivo; conditions: β-thalassemic mice treated with rapamycin vs vehicle-treated controls; P<0.0001
Description: Samples were fixed in 2.5% glutaraldehyde in 0.1M sodium cacodylate buffer, pH 7.4, and embedded in 2% low-gelling-temperature agarose. The samples were post-fixed in 2% osmium tetroxide in 0.1M cacodylate buffer with 0.3% potassium ferrocyanide for 1.5 hours, dehydrated through a graded series of ethanol/propylene oxide solutions, then infiltrated with and embedded in epoxy resin, which was polymerized at 70° C. overnight. Semi-thin (0.5 μm) sections were stained with toluidine blue for light microscope examination. Ultra-thin (80 nm) sections were cut and imaged using an FEI Tecnai 200 Kv FEG Transmission Electron Microscope with an ATM XR41 digital camera.
Areas of electron-dense α-globin inclusions in reticulocytes were quantified by automated image analysis of electron micrographs. TEM images were analyzed with the FIJI software program and the Trainable Weka Segmentation plugin to produce pixel-based segmentations in order to quantify differences in the numbers and areas of intracytoplasmic hemoglobin precipitates in thalassemic and non-thalassemic samples (Schindelin, et al. (2012) Nat. Meth. 9:676-682; Arganda-Carreras, et al. (2017) Bioinformatics 33:2424-2426).
as §1, §2

[6] = Hbb^+/+ Ulk1^+/+ mice, rapamycin 4 mg/kg i.p. daily 30 days, mean ± SD
[7] = Hbb^Th3/+ Ulk1^+/+ mice, rapamycin 4 mg/kg i.p. daily 30 days, mean ± SD
[8] = Hbb^Th3/+ Ulk1^−/− mice, rapamycin 4 mg/kg i.p. daily 30 days, mean ± SD
[9] = β-thalassemic mice, rapamycin 4 mg/kg i.p. daily 30 days vs vehicle, P<0.001

For `CC(C)C[C@@H](C=O)NC(=O)[C@H](CC(C)C)NC(=O)[C@H](CC(C)C)NC(=O)OCc1ccccc1` [MG132] (Cbz-Leu-Leu-Leu-aldehyde), the “free α-globin levels” value ([1]; β-thalassemic erythroblasts, MG132 1 μM or 2.5 μM added day 13, HPLC two days later) was “raised free α-globin levels”, the “sensitivity of clearance of labeled insoluble α-globin to the inhibitor” value (Hbb^Th3/+ reticulocytes) was “sensitive” and the “effect on cell survival” value [2] was “induced cell death”.
With `CO/C1=C\C(C)=C\[C@@H](C)[C@@H](O)[C@@H](C)C/C(C)=C/C=C/[C@H](OC)[C@@H]([C@@H](C)[C@@H](O)[C@H](C)[C@@]2(O)C[C@@H](O)[C@H](C)[C@@H](C(C)C)O2)OC1=O` [bafilomycin A1] the “sensitivity of clearance of labeled insoluble α-globin to the inhibitor” value (Hbb^Th3/+ reticulocytes) was “sensitive”.
For `CC(C)C[C@H](NC(=O)[C@H](Cc1ccccc1)NC(=O)c1cnccn1)B(O)O` [bortezomib], the “induction of autophagy and heat-shock proteins” value (Hbb^Th3/+ mice) is given as “induced both autophagy and heat-shock proteins” and the “insoluble α-globin” value (Hbb^Th3/+ mice) is given as “no net increase in insoluble α-globin”.
For `CO[C@H]1C[C@@H]2CC[C@@H](C)[C@@](O)(O2)C(=O)C(=O)N2CCCC[C@H]2C(=O)O[C@H]([C@H](C)C[C@@H]2CC[C@@H](O)[C@H](OC)C2)CC(=O)[C@H](C)/C=C(\C)[C@@H](O)[C@@H](OC)C(=O)[C@H](C)C[C@H](C)/C=C/C=C/C=C/1C` [rapamycin], the Hb [3, 6] was 13.78 ± 1.99^ns g/dL, the Hct [3, 6] was 40.98 ± 5.75^ns % and the MCH [3, 6] was 14.53 ± 0.53^ns pg. For the same molecule, the MCHC [3, 6] was 33.66 ± 0.76^ns g/dL, the MCV [3, 6] was 42.89 ± 1.61^ns fL and the RDW [3, 6] was 14.40 ± 0.91^ns %. The Reticulocytes [3, 6] was 2.90 ± 1.21^ns %, the Hb [3, 7] was 10.33 ± 1.07 g/dL and the Hct [3, 7] was 29.42 ± 3.59 %. The MCH [3, 7] was 11.56 ± 1.21 pg, the MCHC [3, 7] was 35.54 ± 1.01 g/dL and the MCV [3, 7] was 32.67 ± 3.02 fL. The RDW [3, 7] was 31.05 ± 5.23 %, the Reticulocytes [3, 7] was 13.06 ± 6.67 % and the Hct [3, 8] was 25.42 ± 4.59^ns %. For the same molecule, the MCH [3, 8] was 15.08 ± 1.31^ns pg, the MCHC [3, 8] was 34.99 ± 2.14^ns g/dL and the MCV [3, 8] was 43.03 ± 1.62 fL. The RBC [3, 8] was 5.81 ± 0.99^ns ×10^6/μL, the RDW [3, 8] was 39.73 ± 0.66^ns % and the Reticulocytes [3, 8] was 34.35 ± 2.78^ns %. For the same molecule, the “effect on RBC indices or erythropoiesis” value ([3]; wild-type or Hbb^Th3/+Ulk1^−/− mice) was “no effect”, the “decrease in reticulocyte count” value [3, 9] was 44% and the “increase in RBC count” value [3, 9] was 27%. The “increase in Hb” value ([3]; β-thalassemic mice, rapamycin 4 mg/kg i.p. daily 30 days vs vehicle, P<0.05) was 10%, the “Bone marrow erythropoiesis grade” value ([4]; Hbb^+/+ Ulk1^+/+ mice) was 0.00 ± 0.00^ns and the Liver erythropoiesis grade ([4]; Hbb^+/+ Ulk1^+/+ mice) was 0.44 ± 0.53^ns. For the same molecule, the Spleen erythropoiesis grade ([4]; Hbb^+/+ Ulk1^+/+ mice) was 0.00 ± 0.00^ns, the “Final grade (sum of the grades of the three tissues)” value (from here on “Final grade”) ([4]; Hbb^+/+ Ulk1^+/+ mice) was 0.44 ± 0.53^ns and the “Bone marrow erythropoiesis grade” value ([4]; Hbb^Th3/+ Ulk1^+/+ mice) was 1.75 ± 1.67^ns. For the same molecule, the Liver erythropoiesis grade ([4]; Hbb^Th3/+ Ulk1^+/+ mice) was 0.87 ± 0.35^ns, the Spleen erythropoiesis grade ([4]; Hbb^Th3/+ Ulk1^+/+ mice) was 2.37 ± 0.52 and the “Final grade” value ([4]; Hbb^Th3/+ Ulk1^+/+ mice) was 5.00 ± 1.85. The “Bone marrow erythropoiesis grade” value ([4]; Hbb^Th3/+ Ulk1^−/− mice) was 3.30 ± 0.48^ns, the Liver erythropoiesis grade ([4]; Hbb^Th3/+ Ulk1^−/− mice) was 1.10 ± 0.31 and the Spleen erythropoiesis grade ([4]; Hbb^Th3/+ Ulk1^−/− mice) was 3.20 ± 0.79^ns. The “Final grade” value ([4]; Hbb^Th3/+ Ulk1^−/− mice) was 7.60 ± 1.07^ns, the “effect on the accumulation of insoluble α-globin” value (insoluble α-globin; Hbb^Th3/+Ulk1^−/− mice) was “no effect” and the “decrease of insoluble α-globin in reticulocytes” value (insoluble α-globin; rapamycin-treated Hbb^Th3/+ mice) was “approximately 50%”. For the same molecule, the “reduction in electron-dense aggregates in reticulocytes (TEM)” value [5] was “approximately 60%”, the “reduction of free α-globin” value ([1]; NTD β-thalassemic erythroblasts, P<0.001) was 85% and the “reduction of free α-globin” value ([1]; TD β-thalassemia erythroblasts, P<0.0001) was 40%. For the same molecule, the “effect on cell survival” value [2] was “no deleterious effect on cell survival”.
